The target in series [1] is Procathepsin L (Homo sapiens) (UniProt P07711). The experiment in a line: Inhibition of human cathepsin L assessed as residual activity using Z-Phe-Arg-pNA as substrate incubated for 60 mins by fluorometric assay. More on the design: concentration or dose not given beside the values.
Series [2] deals with T1, Cathepsin K (Homo sapiens) (UniProt P43235).
T1 sequence (whole entry): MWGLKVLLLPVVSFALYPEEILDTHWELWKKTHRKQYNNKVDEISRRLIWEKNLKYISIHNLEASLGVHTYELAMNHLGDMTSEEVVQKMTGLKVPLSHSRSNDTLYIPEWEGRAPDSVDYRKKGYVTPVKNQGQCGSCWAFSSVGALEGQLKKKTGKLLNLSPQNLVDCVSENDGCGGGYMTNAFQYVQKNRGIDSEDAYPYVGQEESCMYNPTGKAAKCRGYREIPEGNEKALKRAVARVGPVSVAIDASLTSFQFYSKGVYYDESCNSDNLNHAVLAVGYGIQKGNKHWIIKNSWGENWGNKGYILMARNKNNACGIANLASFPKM
Description: Inhibition of human cathepsin K assessed as ratio of Kinact/Ki using Z-Phe-Arg-pNA as substrate incubated for 60 mins by fluorometric assay.

Series [3] deals with Cathepsin S (Homo sapiens) (UniProt P25774). The experiment in a line: Inhibition of human cathepsin S assessed as ratio of Kinact/Ki using Z-Phe-Val-Arg-pNA as substrate incubated for 60 mins by fluorometric assay.
The target in series [4] is Cathepsin B (Homo sapiens) (UniProt P07858). The experiment in a line: Inhibition of human cathepsin B assessed as residual activity using Z-Arg-Arg-pNA as substrate incubated for 60 mins by fluorometric assay. Further details: concentration or dose not given beside the values.
In series [5] the target is Procathepsin L (Homo sapiens) (UniProt P07711). Description: Inhibition of human cathepsin L assessed as ratio of Kinact/Ki using Z-Phe-Arg-pNA as substrate incubated for 60 mins by fluorometric assay.
The target in series [6] is Cathepsin B (Homo sapiens) (UniProt P07858). The experiment in a line: Inhibition of human cathepsin B assessed as ratio of Kinact/Ki using Z-Arg-Arg-pNA as substrate incubated for 60 mins by fluorometric assay.
Series [7] deals with Cathepsin S (Homo sapiens) (UniProt P25774). The experiment in a line: Inhibition of human cathepsin S assessed as residual activity using Z-Phe-Val-Arg-pNA as substrate incubated for 60 mins by fluorometric assay.
For series [8], the target named is T1, Cathepsin K (Homo sapiens). Description: Binding affinity to recombinant human Cathepsin K at 5 uM pretreated with E64/K11777 pan-cathepsin inhibitor s for 15 mins followed by compound addition and measured after 1 hr by SDS-PAGE. The following applies: time 75.0 min.
Series [9] has as its target T1, Cathepsin K (Homo sapiens). Description: Inhibition of recombinant human Cathepsin K at 5 uM using Z-Phe-Arg-pNA as substrate incubated for 1 hr in presence of HEK293 cell lysate by SDS-PAGE. Format: subcellular.
For series [10], the target named is T1, Cathepsin K (Homo sapiens). Description: Binding affinity to Cathepsin K in human U2OS cells at 1 uM measured after 4 hrs by SDS-PAGE. Format: cell-based.
Series [11] is described as follows: Drug uptake in human U2OS cells […] at 1 uM after 16 hrs by LysoTracker staining based fluorescence microscopy. Format: ADME, subcellular.
Series [12] addresses T1, Cathepsin K (Homo sapiens). Description: Binding affinity to Cathepsin K in human U2OS cells at 1 uM pretreated with E-64d for 1 hr followed by compound addition and measured after 24 hrs by SDS-PAGE. Format: cell-based.
Series [13] deals with T1, Cathepsin K (Homo sapiens). The experiment in a line: Binding affinity to Cathepsin K in human U2OS cells at 1 uM measured after 24 hrs by SDS-PAGE. In kind it is cell-based.
Series [14] deals with T1, Cathepsin K (Homo sapiens). Description: Binding affinity to Cathepsin K in human U2OS cells at 1 uM measured after 16 hrs by SDS-PAGE. In kind it is cell-based.

The source of these data is ChEMBL document CHEMBL5029160, “An Activity-Based Probe for Cathepsin K Imaging with Excellent Potency and Selectivity” (J Med Chem, 2021).

Calls of active or inactive are those of the source. The calls are words filed in the database; no cut-off is given here.

Sequence of Procathepsin L (Homo sapiens) (P07711 114-333 limits assumed): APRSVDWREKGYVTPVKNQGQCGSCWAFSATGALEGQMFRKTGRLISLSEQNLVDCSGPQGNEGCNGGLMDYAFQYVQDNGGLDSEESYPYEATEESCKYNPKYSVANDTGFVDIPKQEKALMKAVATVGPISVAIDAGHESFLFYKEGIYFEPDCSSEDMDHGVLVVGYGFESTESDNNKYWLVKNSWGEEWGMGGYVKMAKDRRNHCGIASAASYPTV
Sequence of Cathepsin S (Homo sapiens) (P25774 115-331 limits assumed): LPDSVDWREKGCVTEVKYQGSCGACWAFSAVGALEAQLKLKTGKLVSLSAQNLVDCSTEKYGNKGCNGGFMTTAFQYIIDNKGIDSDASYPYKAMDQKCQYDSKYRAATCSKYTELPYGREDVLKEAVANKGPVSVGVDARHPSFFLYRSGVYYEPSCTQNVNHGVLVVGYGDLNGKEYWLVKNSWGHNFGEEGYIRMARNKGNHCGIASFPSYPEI

`CCCC[C@H](NC(=O)CCCC[N+]1=C(/C=C/C=C/C=C2/N(C)c3ccccc3C2(C)C)C(C)(C)c2ccccc21)C(=O)N[C@@H](CC(C)C)C(=O)NC/C=C/C(=O)N(Cc1ccccc1)Cc1ccccc1`: the Activity stood at 91% in series [1] and 96% in [4]. Also, the Ratio stood at 17900 M⁻¹ s⁻¹ in [2] and 556 M⁻¹ s⁻¹ in series [3].
`CC(C)C[C@H](NC(=O)OC(C)(C)C)C(=O)NC/C=C/C(=O)N(Cc1ccccc1)Cc1ccccc1`: the results for the Activity in series [1] and in [4] were 83% and 91%, respectively. For the same molecule, the Ratio was determined as 10600 M⁻¹ s⁻¹ in series [2] and 291 M⁻¹ s⁻¹ in [3].
`CC(C)C[C@H](NC(=O)c1cc2cc3c4c(c2oc1=O)CCCN4CCC3)C(=O)NC/C=C/C(=O)N(Cc1ccccc1)Cc1ccccc1`: the values for the Activity in series [1], in series [7] and in series [4] were 89%, 80% and 96%, respectively. The Ratio in series [2] was 9550 M⁻¹ s⁻¹; in series [5], 2820 M⁻¹ s⁻¹; in series [6], 365 M⁻¹ s⁻¹.
For the molecule `CCCC[C@H](NC(=O)OC(C)(C)C)C(=O)N[C@@H](CC(C)C)C(=O)NC/C=C/C(=O)N(Cc1ccccc1)Cc1ccccc1`, the values for the Activity in series [1] and in series [4] were 76% and 91%, respectively. Besides, the Ratio in series [2] is 6440 M⁻¹ s⁻¹; in [3], 485 M⁻¹ s⁻¹.
On to `CC(C)C[C@H](NC(=O)c1ccc(-c2cc3cc4c5c(c3oc2=O)CCCN5CCC4)cc1)C(=O)NC/C=C/C(=O)N(Cc1ccccc1)Cc1ccccc1`, for which the Ratio came out at 84200 M⁻¹ s⁻¹ in series [2] and 1510 M⁻¹ s⁻¹ in series [3].
For the molecule `CC(C)C[C@H](NC(=O)CCCC[N+]1=C(/C=C/C=C/C=C2/N(C)c3ccccc3C2(C)C)C(C)(C)c2ccccc21)C(=O)NC/C=C/C(=O)N(Cc1ccccc1)Cc1ccccc1.[Cl-]`, the Activity is 89% in series [1] and 96% in series [4]. Further, the Ratio in [2] was 35300 M⁻¹ s⁻¹; in series [3], 505 M⁻¹ s⁻¹. Besides, the result in [8] and in series [12] was inactive. In addition, the inhibition result in [9] is “Active”. The result in series [10], in [13] and in series [14] was Active. In addition, the Drug uptake result in series [11] is listed as “Active”.
